Test results reported in patent US7589239B2, “Therapeutic agents for the treatment of cancer, metabolic diseases and skin disorders” (Auspex Pharmaceuticals, priority 2005, dated 2009).

Target: T1, human RAR-β (Homo sapiens, UniProt P10826)
T1 sequence (P10826 1-455): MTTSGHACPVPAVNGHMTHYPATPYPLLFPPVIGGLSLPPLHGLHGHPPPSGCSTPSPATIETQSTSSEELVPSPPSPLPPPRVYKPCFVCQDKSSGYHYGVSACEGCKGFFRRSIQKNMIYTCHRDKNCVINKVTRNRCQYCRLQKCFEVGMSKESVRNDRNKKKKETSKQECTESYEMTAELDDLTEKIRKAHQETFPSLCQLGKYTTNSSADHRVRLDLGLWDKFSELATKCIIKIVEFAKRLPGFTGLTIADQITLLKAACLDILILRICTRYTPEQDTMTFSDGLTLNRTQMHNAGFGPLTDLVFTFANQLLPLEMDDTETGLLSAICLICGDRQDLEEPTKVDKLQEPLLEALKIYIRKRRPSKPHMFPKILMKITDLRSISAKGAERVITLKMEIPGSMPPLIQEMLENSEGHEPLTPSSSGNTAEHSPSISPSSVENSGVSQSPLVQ
Assay: Co-transfection assay (luciferase reporter induction in transfected COS-7 cells)
Protocol: The following assay is a measure of the in-vitro binding affinity of the given compound with human RAR-β in COS-7 cells. Binding of the compound to RAR-β will induce transcription of luciferase within the cells. This level of transcription can be quantified based on the amount of luminescence emitted after incubation of the cell lysate with luciferin.
COS-7 cells were cultured in Dulbecco Modified Eagle's Medium (DMEM) with 4 mM L-glutamine, 4.5 g/L glucose 1.5 g/L sodium bicarbonate and supplemented with 10% fetal bovine serum. Cells were transfected using the calcium phosphate:DNA co-precipitation method. A 10-cm plate of cells was transfected with 5 μg of luciferase reporter construct, 5 μg of expression vector for β-galactosidase, 1 μg of expression vector for RAR-β, and pUC19 as carrier, to a total of 20 μg.
β-galactosidase (5 μg) was included in each transfection to monitor transfection efficiency. Cells were incubated 6 hours at 37° C. in a CO2 incubator. The cells were re-suspended in fresh media containing 10% serum (96-well plate, 15000 cells per well) with or without compound (in 0.5% DMSO) and the plates were incubated at 37° C. in a CO2 incubator. Lysis buffer (1×) was added to cover the cells and the plates were incubated at ambient temperature for 15 min. Luciferase and β-galactosidase assays were performed 36 hours post-transfection, and the normalized luciferase response was determined as relative light units divided by β-galactosidase activity. Composition of 5× lysis buffer is 125 mM. Tris (pH 7.8) with H3PO4 10 mM trans-1,2 diaminocyclohexane-N,N,N′,N′-tetraaceticacid (CDTA), 10 mM dithiothereitol (DTT), 50% glycerol, 5% triton X-100.

Compound	fold induction at 0.001 µM	fold induction at 0.03 µM	fold induction at 0.1 µM	fold induction at 3 µM	fold induction at 40 µM	fold induction at 10 µM
CC1=C(/C=C/C(C)=C/C=C/C(C)=C/C(=O)O)C(C)(C)CCC1 [ATRA, all-trans-retinoic acid, reference compound]	9.3	13.7	19.1			
COc1ccc(-c2ccc3cc(B4OC(C)(C)C(C)(C)O4)ccc3c2)cc1C12CC3CC(CC(C3)C1)C2 [Example 9, 2-[6-(3-(1-Adamandyl)-4-methoxyphenyl)-naphthalen-2-yl]-4,4,5,5-tetramethyl[1,3,2]dioxaborolane]				2	6	
COc1ccc(-c2ccc3cc(B(O)O)ccc3c2)cc1C12CC3CC(CC(C3)C1)C2 [Example 10, 6-[-3-(1-Adamandyl)-4-methoxyphenyl)-2-naphthoboronic acid]				2.1		3.6
